PMC12461339, “Benzoylselenoureas: A Novel Dual-Action Inhibitor Targeting Fungal Growth and Urease Activity in Cryptococcus neoformans” (ACS Omega, 2025)
pIC50: −log10 of the molar value. ≈ marks a conversion by molar mass, not a printed value. Read-outs that look alike come from different tables or passages of the source.

Assays:
[1] = tested on: C. neoformans H99; test: Broth microdilution antifungal assay (MIC) in RPMI or urea medium; type: cell-based; details: Cryptococcus neoformans
Procedure: (§1) C. neoformans H99 (or ATCC 208821), a standard strain, was used to evaluate the antifungal activity of BSU1-BSU11 and BTU1-BTU11 compounds using the broth microdilution method. The assay was performed in two different culture media: the standard medium RPMI 1640 buffered with […] (RMPI), and the Christensen broth (urea medium: 1 g/L peptone, 1 g/L dextrose, 5 g/L sodium chloride, 2 g/L potassium phosphate, 20 g/L urea, 12 mg/L phenol red, pH 7.0). The compounds were dissolved in dimethyl sulfoxide (DMSO) and diluted in both media, obtaining final concentrations from 0.03 to 128 mg/L in a 96-well plate and final DMSO concentration below 0.5%, considered nontoxic. For assay, yeasts were distributed in each well to obtain a final inoculum of 0.5–2.5 × 10^3 CFU/mL, and the plate was incubated at 35 °C for 48 h.
(§2) The MIC values were determined in both media and were defined as the lowest concentrations of BSU1-BSU11 and BTU1-BTU11 that inhibited 50% of fungal growth visually compared with untreated yeasts (growth control). In addition, the urease activity was indicated by medium color change from orange to pink due to ammonia production and the MICure was defined as the lowest concentration that inhibited the urease activity by visual inspection in urea medium with no color changes. For both assays, two controls were included: untreated yeast group for observation of fungal growth pattern or intracellular urease activity, and wells containing only medium for assay sterility control.

[2] = molecular target: T1, yeast urease activity (Cryptococcus neoformans, UniProt O13465); test: Inhibition of yeast urease activity in urea (Christensen) medium, colour change (MICure); type: cell-based
T1 construct: endogenous in cells; host or cells: Cryptococcus neoformans H99 (ATCC 208821) yeasts in Christensen urea broth
Procedure: The inhibitory activity against yeast urease was assessed using Christensen’s medium, which contains urea to induce URE1 gene expression. […] Even in the presence of fungal growth, inhibition of urease activity was evidenced by the absence of medium color change, indicating suppressed ammonia production.
as §1, §2

[3] = tested on: C. neoformans H99; test: Minimum fungicidal concentration by subculturing after MIC reading; type: cell-based; details: Cryptococcus neoformans
Procedure: After MIC readings, the MFC values were determined by subculturing, at 35 °C for 48 h, of all concentrations that inhibited the fungal growth; and then MFC was defined as the lowest concentration of the compound capable of reducing ≥99% viability of the initial fungal inoculum. ,

[4] = molecular target: T2, C. neoformans urease (Cryptococcus neoformans, UniProt O13465); test: Urease activity in crude protein extract, indophenol method; type: biochemical; details: ureIC50, BSU series
T2 construct: endogenous in cells; host or cells: Cryptococcus neoformans H99, lysed by sonication; dialysed and lyophilised soluble fraction (total protein)
Procedure: C. neoformans H99 yeasts were cultivated in 100 mL of Christensen broth for 72 h at 35 °C by shaking at 200 rpm for the obtention of urease as previously described. Briefly, the yeasts were ruptured using a lysis buffer (40 mM Tris-HCl, 20 mM dithiothreitol, 4% Triton X-100, 1 mM ethylenediaminetetraacetic acid, 2 mM phenylmethylsulfonyl fluoride, protease inhibitor cocktail) and an ultrasonic sonicator. After centrifugation, the soluble fraction was dialyzed in a dialysis membrane submerged in 10 mM sodium phosphate buffer, pH 7.0; the sample was lyophilized and stored at −20 °C. Before the assay, the sample was resuspended in 1 mL of sodium phosphate buffer (10 mM, pH 7.0), and the total protein was quantified by the Bradford method.
The urease activity was determined by the indophenol method. In a 96-well microplate, 10 μL of 100 mM urea was added to 45 μL of total protein and 45 μL of BSU1-BSU11 (concentrations of 0.06–1000 μg/L) in phosphate buffer. The reaction was maintained for 10 min under shaking at 600 rpm, at room temperature. Then, 45 μL of solution A (1% phenol; 0.005% sodium nitroprusside) and 70 μL of solution B (0.5% sodium hydroxide; 0.1% sodium hypochlorite) were immediately added to the wells in the dark and incubated for 5 min at 50 °C under shaking at 600 rpm. Urease activity was quantified by measuring absorbance at 670 nm. The inhibitory concentration capable of inhibiting 50% of urease activity (ureIC50) was determined by nonlinear regression calculation using the GraphPad Prism 5.0 software.

[5] = tested on: C. neoformans; parameters: method as in PMID 36960287; details: against C. neoformans; cited from earlier work
[6] = BSU series, 100% inhibition of yeast urease activity in urea medium
[7] = Table S1, urea medium, 100% inhibition of yeast urease activity
[8] = H99, 48 h, read-out: MIC RPMI, BSU series, 50% inhibition of fungal growth, RPMI medium, 35 °C, 48 h
[9] = H99, 48 h, read-out: MIC urea, BSU series, 50% inhibition of fungal growth, urea medium, 35 °C, 48 h
[10] = H99, Table S1, RPMI medium, C. neoformans H99
[11] = H99, Table S1, urea medium, C. neoformans H99
[12] = H99, BSU series, after assay in RPMI medium, ≥99% reduction of viability
[13] = H99, Table S1, RPMI medium line
[14] = H99, Table S1, urea medium line
[15] = H99, read-out: MIC RPMI, BTU series, 50% inhibition of fungal growth, RPMI medium
[16] = H99, read-out: MIC urea, BTU series, 50% inhibition of fungal growth, urea medium
[17] = BTU series, 100% inhibition of yeast urease activity in urea medium
[18] = H99, BTU series, after assay in RPMI medium

T2 sequence (O13465 whole entry): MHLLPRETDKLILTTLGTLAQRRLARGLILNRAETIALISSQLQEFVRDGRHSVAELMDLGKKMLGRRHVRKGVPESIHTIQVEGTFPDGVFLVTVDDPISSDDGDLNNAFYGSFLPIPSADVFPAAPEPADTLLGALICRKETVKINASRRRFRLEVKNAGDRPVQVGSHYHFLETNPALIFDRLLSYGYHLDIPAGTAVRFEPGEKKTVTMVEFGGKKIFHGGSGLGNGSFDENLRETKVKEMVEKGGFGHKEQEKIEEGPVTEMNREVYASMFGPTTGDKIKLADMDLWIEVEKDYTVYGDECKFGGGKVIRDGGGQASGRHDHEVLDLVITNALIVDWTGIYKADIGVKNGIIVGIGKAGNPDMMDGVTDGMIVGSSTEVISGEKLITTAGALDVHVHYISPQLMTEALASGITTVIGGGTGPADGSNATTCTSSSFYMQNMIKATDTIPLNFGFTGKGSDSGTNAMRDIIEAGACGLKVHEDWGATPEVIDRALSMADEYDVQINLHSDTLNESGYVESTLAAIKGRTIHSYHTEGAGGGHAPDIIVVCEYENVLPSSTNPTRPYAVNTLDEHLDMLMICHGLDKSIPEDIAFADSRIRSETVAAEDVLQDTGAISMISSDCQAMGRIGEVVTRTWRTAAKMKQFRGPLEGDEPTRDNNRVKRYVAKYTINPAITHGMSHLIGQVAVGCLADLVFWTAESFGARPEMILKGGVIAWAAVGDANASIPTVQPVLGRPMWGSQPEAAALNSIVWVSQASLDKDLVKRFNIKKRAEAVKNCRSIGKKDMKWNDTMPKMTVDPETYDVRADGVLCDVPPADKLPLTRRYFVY
T1 sequence (O13465 whole entry): as above

O=C(NC(=[Se])Nc1ccccc1)c1ccccc1 [BSU1]
MIC ([1]; H99, 48 h, BSU series, 50% inhibition of fungal growth, RPMI medium, 35 °C, 48 h, read-out: MIC RPMI): 2 µg/mL (≈ 6.6 µM)
MIC ([1]; H99, 48 h, BSU series, 50% inhibition of fungal growth, urea medium, 35 °C, 48 h, read-out: MIC urea): 0.06 µg/mL (≈ 0.198 µM)
MIC ([1]; H99, Table S1, RPMI medium, C. neoformans H99, read-out: MIC): 2 µg/mL (≈ 6.6 µM)
MIC ([1]; H99, Table S1, urea medium, C. neoformans H99, read-out: MIC): 0.06 µg/mL (≈ 0.198 µM)
MICURE [2, 6]: 0.06 mg/L
MICURE [2, 7]: 0.06 mg/L
MFC ([3]; H99, BSU series, after assay in RPMI medium, ≥99% reduction of viability, read-out: MFC): 2 µg/mL (≈ 6.6 µM)
MFC ([3]; H99, Table S1, RPMI medium line, read-out: MFC): 2 µg/mL (≈ 6.6 µM)
MFC ([3]; H99, Table S1, urea medium line, read-out: MFC): 0.12 µg/mL (≈ 0.396 µM)
pIC50 [4]: 8.31

Cc1ccc(NC(=[Se])NC(=O)c2ccccc2)cc1 [BSU2]
MIC [1, 8]: 16 µg/mL (≈ 50.4 µM)
MIC [1, 9]: 0.5 µg/mL (≈ 1.58 µM)
MIC [1, 10]: 16 µg/mL (≈ 50.4 µM)
MIC [1, 11]: 0.5 µg/mL (≈ 1.58 µM)
MICURE [2, 6]: 0.5 mg/L
MICURE [2, 7]: 0.5 mg/L
MFC [3, 12]: 16 µg/mL (≈ 50.4 µM)
MFC [3, 13]: 16 µg/mL (≈ 50.4 µM)
MFC [3, 14]: 1 µg/mL (≈ 3.15 µM)
pIC50 [4]: 8.97

CC(C)(C)c1ccc(NC(=[Se])NC(=O)c2ccccc2)cc1 [BSU3]
MIC [1, 8]: > 128 µg/mL
MIC [1, 9]: > 128 µg/mL
MIC [1, 10]: > 16 µg/mL
MIC [1, 11]: 16 µg/mL (≈ 44.5 µM)
MICURE [2, 7]: 16 mg/L
MFC [3, 12]: > 128 µg/mL
MFC [3, 13]: > 16 µg/mL
MFC [3, 14]: > 16 µg/mL
pIC50 [4]: 9.02

COc1ccccc1NC(=[Se])NC(=O)c1ccccc1 [BSU4]
MIC [1, 8]: 8 µg/mL (≈ 24 µM)
MIC [1, 9]: 0.5 µg/mL (≈ 1.5 µM)
MIC [1, 10]: 16 µg/mL (≈ 48 µM)
MIC [1, 11]: 0.5 µg/mL (≈ 1.5 µM)
MICURE [2, 6]: 0.5 mg/L
MICURE [2, 7]: 0.25 mg/L
MFC [3, 12]: 8 µg/mL (≈ 24 µM)
MFC [3, 13]: 16 µg/mL (≈ 48 µM)
MFC [3, 14]: 0.5 µg/mL (≈ 1.5 µM)
pIC50 [4]: 8.63

COc1cccc(NC(=[Se])NC(=O)c2ccccc2)c1 [BSU5]
MIC [1, 8]: 1 µg/mL (≈ 3 µM)
MIC [1, 9]: 0.12 µg/mL (≈ 0.36 µM)
MIC [1, 10]: 8 µg/mL (≈ 24 µM)
MIC [1, 11]: 0.25 µg/mL (≈ 0.75 µM)
MICURE [2, 6]: 0.12 mg/L
MICURE [2, 7]: 0.12 mg/L
MFC [3, 12]: 1 µg/mL (≈ 3 µM)
MFC [3, 13]: 16 µg/mL (≈ 48 µM)
MFC [3, 14]: 0.25 µg/mL (≈ 0.75 µM)
pIC50 [4]: 7.86

O=C(NC(=[Se])Nc1ccc(Cl)cc1)c1ccccc1 [BSU6]
MIC [1, 8]: 16 µg/mL (≈ 47.4 µM)
MIC [1, 9]: 0.5 µg/mL (≈ 1.48 µM)
MIC [1, 10]: > 16 µg/mL
MIC [1, 11]: 8 µg/mL (≈ 23.7 µM)
MICURE [2, 6]: 0.25 mg/L
MICURE [2, 7]: 8 mg/L
MFC [3, 12]: 16 µg/mL (≈ 47.4 µM)
MFC [3, 13]: > 16 µg/mL
MFC [3, 14]: 16 µg/mL (≈ 47.4 µM)
pIC50 [4]: 8.52

O=C(NC(=[Se])Nc1cccc(Cl)c1)c1ccccc1 [BSU7]
MIC [1, 8]: 8 µg/mL (≈ 23.7 µM)
MIC [1, 9]: 0.25 µg/mL (≈ 0.74 µM)
MIC [1, 10]: 4 µg/mL (≈ 11.8 µM)
MIC [1, 11]: 0.12 µg/mL (≈ 0.355 µM)
MICURE [2, 6]: 0.12 mg/L
MICURE [2, 7]: 0.06 mg/L
MFC [3, 12]: 16 µg/mL (≈ 47.4 µM)
MFC [3, 13]: 4 µg/mL (≈ 11.8 µM)
MFC [3, 14]: 0.25 µg/mL (≈ 0.74 µM)
pIC50 [4]: 8.12

O=C(NC(=[Se])Nc1ccc(Br)cc1)c1ccccc1 [BSU8]
MIC [1, 8]: 128 µg/mL (≈ 335 µM)
MIC [1, 9]: 8 µg/mL (≈ 20.9 µM)
MIC [1, 10]: 8 µg/mL (≈ 20.9 µM)
MIC [1, 11]: 0.5 µg/mL (≈ 1.31 µM)
MICURE [2, 6]: 8 mg/L
MICURE [2, 7]: 0.5 mg/L
MFC [3, 12]: > 128 µg/mL
MFC [3, 13]: 8 µg/mL (≈ 20.9 µM)
MFC [3, 14]: 0.5 µg/mL (≈ 1.31 µM)
pIC50 [4]: 8.39

O=C(NC(=[Se])Nc1cccc(Br)c1)c1ccccc1 [BSU9]
MIC [1, 8]: 4 µg/mL (≈ 10.5 µM)
MIC [1, 9]: 0.12 µg/mL (≈ 0.314 µM)
MIC [1, 10]: 1 µg/mL (≈ 2.62 µM)
MIC [1, 11]: 0.12 µg/mL (≈ 0.314 µM)
MICURE [2, 6]: 0.06 mg/L
MICURE [2, 7]: 0.12 mg/L
MFC [3, 12]: 4 µg/mL (≈ 10.5 µM)
MFC [3, 13]: 1 µg/mL (≈ 2.62 µM)
MFC [3, 14]: 0.5 µg/mL (≈ 1.31 µM)
pIC50 [4]: 8.64

O=C(NC(=[Se])Nc1ccccc1[N+](=O)[O-])c1ccccc1 [BSU10]
MIC [1, 8]: 8 µg/mL (≈ 23 µM)
MIC [1, 9]: 1 µg/mL (≈ 2.87 µM)
MIC [1, 10]: 8 µg/mL (≈ 23 µM)
MIC [1, 11]: 1 µg/mL (≈ 2.87 µM)
MICURE [2, 6]: 1 mg/L
MICURE [2, 7]: 1 mg/L
MFC [3, 12]: 16 µg/mL (≈ 45.9 µM)
MFC [3, 13]: 16 µg/mL (≈ 45.9 µM)
MFC [3, 14]: 2 µg/mL (≈ 5.74 µM)
pIC50 [4]: 8.06

O=C(NC(=[Se])Nc1cccc([N+](=O)[O-])c1)c1ccccc1 [BSU11]
MIC [1, 8]: 32 µg/mL (≈ 91.9 µM)
MIC [1, 9]: 1 µg/mL (≈ 2.87 µM)
MIC [1, 10]: 16 µg/mL (≈ 45.9 µM)
MIC [1, 11]: 1 µg/mL (≈ 2.87 µM)
MICURE [2, 6]: 1 mg/L
MICURE [2, 7]: 1 mg/L
MFC [3, 12]: 64 µg/mL (≈ 184 µM)
MFC [3, 13]: > 16 µg/mL
MFC [3, 14]: 1 µg/mL (≈ 2.87 µM)
pIC50 [4]: 8.10

O=C(NC(=S)Nc1ccccc1[N+](=O)[O-])c1ccccc1 [BTU10]
MIC [1, 10]: > 128 µg/mL
MIC [1, 11]: > 128 µg/mL
MIC [1, 15]: > 128 µg/mL
MIC [1, 16]: > 128 µg/mL
MICURE [2, 17]: >128 mg/L
MICURE [2, 7]: > 128 mg/L
MFC [3, 18]: > 128 µg/mL
MFC [3, 13]: > 128 µg/mL
MFC [3, 14]: > 128 µg/mL

O=C(NC(=S)Nc1cccc([N+](=O)[O-])c1)c1ccccc1 [BTU11]
MIC [1, 10]: > 128 µg/mL
MIC [1, 11]: > 128 µg/mL
MIC [1, 15]: > 128 µg/mL
MIC [1, 16]: > 128 µg/mL
MICURE [2, 17]: >128 mg/L
MICURE [2, 7]: > 128 mg/L
MFC [3, 18]: > 128 µg/mL
MFC [3, 13]: > 128 µg/mL
MFC [3, 14]: > 128 µg/mL

CCCCNC(=S)NC(=O)c1ccccc1 [Compound 4, N-(butylcarbamothioyl)benzamide]
MIC [5]: 31.25 to 62.5 µg/mL
